Results on 33 compounds are retold here after US20240109881A1, “Heteroaryl Compounds as Ligand Directed Degraders of IRAK4” (Bristol-Myers Squibb Company, priority 2022, published 2024).

Each structure is given as a SMILES string.

In this assay the target is T1, IRAK4 (Homo sapiens, UniProt Q9NWZ3).
T1 construct: endogenous in cells; host or cells: THP-1 cells
T1 sequence (Q9NWZ3 1-460): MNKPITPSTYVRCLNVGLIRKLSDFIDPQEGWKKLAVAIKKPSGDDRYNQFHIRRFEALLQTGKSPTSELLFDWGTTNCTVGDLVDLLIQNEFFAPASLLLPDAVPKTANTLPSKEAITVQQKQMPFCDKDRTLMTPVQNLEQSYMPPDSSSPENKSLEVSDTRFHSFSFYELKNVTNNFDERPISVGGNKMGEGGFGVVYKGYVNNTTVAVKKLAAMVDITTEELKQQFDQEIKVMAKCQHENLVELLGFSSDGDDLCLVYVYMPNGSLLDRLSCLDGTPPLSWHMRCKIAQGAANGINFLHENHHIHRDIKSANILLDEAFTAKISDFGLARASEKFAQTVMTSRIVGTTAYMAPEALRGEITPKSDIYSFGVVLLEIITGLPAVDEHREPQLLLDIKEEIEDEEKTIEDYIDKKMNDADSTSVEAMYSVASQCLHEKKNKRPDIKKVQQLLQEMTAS
As to the kind of experiment: LVL THP1 HTRF (THP1 Homogeneous Time Resolved Fluorescence). Conditions: THP1 cells, 18 h incubation with compound; for DC50: read-out: LVL THP1 HTRF EC50. The format is cell-based. A digest of the protocol:
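IRAK4 HTRF read-out (665/615 nm ratio, anti-IRAK4 d2 acceptor and K donor, 18 h dark incubation at room temperature) on lysates of THP-1 cells. Cells were treated 18 h at 37° C. with 20 nL compound in DMSO, in colorless RPMI with 10% FBS, with a duplicate CTG plate.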
(In general: In TR-FRET formats the signal depends on donor and acceptor labels being close together.)

Take `Cc1cc(N2CCN(CC[C@H]3CC[C@H](NC(=O)c4cnc(-n5ncc6cc(C#N)c(N)nc65)cc4N[C@H](C)C#N)CC3)C[C@H]2C)ccc1C1CCC(=O)NC1=O` (some centres unmarked) [P-172]: the “LVL THP1 HTRF YMIN” value is 1.1% and the DC50 amounted to 10 nM. On the same counts, the results for `C[C@H](C#N)Nc1cc(-n2ncc3cc(C#N)c(N)nc32)ncc1-n1cc([C@H]2CC[C@H](CCN3[C@H](C)CN(c4ccc([C@@]5(C)CCC(=O)NC5=O)cn4)C[C@H]3C)CC2)nn1` (single isomer, unassigned) [P-255] are 90.4% and 12.4 nM. For `CS(=O)(=O)N1CCC(Nc2cc(-n3ncc4cc(C#N)c(N)nc43)ncc2-n2cc([C@H]3CC[C@H](CCN4CCN(c5ccc(C6CCC(=O)NC6=O)cc5)CC4)CC3)nn2)CC1` (some centres unmarked) [P-217], the DC50 is 9 nM.

Consider `C[C@H](C#N)Nc1cc(-n2ncc3cc(C#N)cnc32)ncc1-n1cc([C@H]2CC[C@](O)(CCN3CCN(c4ccc([C@@]5(C)CCC(=O)NC5=O)cn4)CC3)CC2)nn1` (single isomer, unassigned) [P-293], for which the “LVL THP1 HTRF YMIN” value is recorded as 10.5% and the DC50 came to 65.8 nM. In the same order, the values of `CC[C@@H]1CN(CC[C@H]2CC[C@H](c3cn(-c4cnc(-n5ncc6cc(C#N)c(N)nc65)cc4N[C@H](C)C#N)nn3)CC2)CCN1c1ccc(N2CCC(=O)NC2=O)cn1` [P-446] are −1.4% and 1.4 nM. `C[C@H](C#N)Nc1cc(-n2ncc3cnc(N)nc32)ncc1-n1cc([C@H]2CC[C@H](CCN3CCN(c4ccc([C@@]5(C)CCC(=O)NC5=O)cc4)CC3)CC2)nn1` [P-228]: the DC50 was 9 nM.

`C[C@H](C#N)Nc1cc(-n2ncc3cc(C#N)cnc32)ncc1-n1cc(C2CCC(CCN3CC[C@H]4[C@@H]3CCN4c3ccc(N4CCC(=O)NC4=O)cc3)CC2)nn1` (single isomer, unassigned) [P-328]: the “LVL THP1 HTRF YMIN” value is listed as 2.5% and the DC50 turned out to be 2.5 nM. With `C[C@H](C#N)Nc1cc(-n2ncc3cc(C#N)cnc32)ncc1-n1cc(C2CCC(CCN3C[C@H](C)N(c4ccc([C@@]5(C)CCC(=O)NC5=O)cc4)C[C@H]3C)CC2)nn1` (some centres unmarked) [P-244], the “LVL THP1 HTRF YMIN” value is listed as 3.5% and the DC50 came out at 56 nM.

As to `C[C@H](C#N)Nc1cc(-n2ncc3cc(C#N)cnc32)ncc1-n1cc([C@H]2CC[C@](O)(CCN3CCN(c4ccc([C@@]5(C)CCC(=O)NC5=O)cc4)[C@@H](C)C3)CC2)nn1` (single isomer, unassigned) [P-291], the “LVL THP1 HTRF YMIN” value is listed as −4.4% and the DC50 was 57.7 nM.

On to `C[C@H](C#N)Nc1cc(-n2ncc3cc(C#N)cnc32)ncc1-n1cc([C@H]2CC[C@H](CCN3CCC(O)(c4ccc(C5CCC(=O)NC5=O)cc4)CC3)CC2)nn1` (some centres unmarked) [P-352], for which the “LVL THP1 HTRF YMIN” value stood at 2.1% and the DC50 was determined as 3.8 nM. In the same order, the values of `CC1CN(CC[C@H]2CC[C@H](c3cn(-c4cnc(-n5ncc6cc(C#N)cnc65)cc4N[C@H](C)C#N)nn3)CC2)CCC1c1ccc([C@@]2(F)CCC(=O)NC2=O)cc1` (single isomer, unassigned) [P-331] are −2.2% and 1.8 nM. Take `C[C@H](C#N)Nc1cc(-n2ncc3cc(C#N)cnc32)ncc1-n1cc([C@H]2CC[C@H](CCN3CCN(c4ccc(N5CCC(=O)NC5=O)cc4)C[C@@H]3C)CC2)nn1` [P-468]: the “LVL THP1 HTRF YMIN” value amounted to 2.3% and the DC50 was 17.2 nM. `C[C@H](C#N)Nc1cc(-n2ncc3cc(C#N)c(N)nc32)ncc1-n1cc([C@H]2CC[C@H](CCN3CCN(c4cnc([C@@]5(C)CCC(=O)NC5=O)cn4)CC3)CC2)nn1` (single isomer, unassigned) [P-268]: the “LVL THP1 HTRF YMIN” value was −0.2% and the DC50 came to 2.1 nM. In the case of `C[C@H](C#N)Nc1cc(-n2ncc3cc(C#N)c(N)nc32)ncc1-n1cc([C@H]2CC[C@H](CCN3CCN(c4ccc([C@@]5(C)CCC(=O)NC5=O)nc4)CC3)CC2)nn1` (single isomer, unassigned) [P-307], the “LVL THP1 HTRF YMIN” value was found to be 86.3% and the DC50 stood at 6.6 nM. As to `Cc1cc(N2CC[C@H]3[C@@H]2CCN3CC[C@H]2CC[C@H](c3cn(-c4cnc(-n5ncc6cc(C#N)cnc65)cc4N[C@H](C)C#N)nn3)CC2)ccc1N1CCC(=O)NC1=O` (single isomer, unassigned) [P-470], the “LVL THP1 HTRF YMIN” value stood at 10.6% and the DC50 came out at 29.7 nM. With `C[C@H](C#N)Nc1cc(-n2ncc3cc(C#N)cnc32)ncc1-n1cc(C[C@H]2CC[C@H](CN3CCN(c4ccc(C5CCC(=O)NC5=O)cc4)CC3)CC2)nn1` (some centres unmarked) [P-322], the “LVL THP1 HTRF YMIN” value amounted to 4.4% and the DC50 was found to be 16.5 nM. Consider `C[C@H](C#N)Nc1cc(-n2ncc3cc(C#N)cnc32)ncc1-n1cc([C@H]2CC[C@](O)(CCN3CCN(c4ccc([C@@]5(C)CCC(=O)NC5=O)cn4)CC3)CC2)nn1` (single isomer, unassigned) [P-426], for which the “LVL THP1 HTRF YMIN” value is recorded as 41.0% and the DC50 was found to be 1000 nM. On to `CCNc1cc(-n2ncc3cc(C#N)cnc32)ncc1-n1cc([C@H]2CC[C@H](CCN3CCN(c4ccc(C5CCC(=O)NC5=O)cc4)CC3)CC2)nn1` (some centres unmarked) [P-395], for which the “LVL THP1 HTRF YMIN” value was 2.6% and the DC50 turned out to be 9.3 nM.

Take `C[C@H](C#N)Nc1cc(Nc2ncc(C#N)cc2Cl)ncc1-n1cc([C@H]2CC[C@H](CCN3CC4(CC(c5ccc(N6CCC(=O)NC6=O)cn5)C4)C3)CC2)nn1` [P-473]: the “LVL THP1 HTRF YMIN” value amounted to 15.5% and the DC50 was found to be 1000 nM. Consider `C[C@H](C#N)Nc1cc(-n2ncc3cc(C#N)cnc32)ncc1-n1cc([C@H]2CC[C@H](CCN3CCN(c4ccc(C5(C)CCC(=O)NC5=O)cc4)CC3)CC2)nn1` (single isomer, unassigned) [P-204], for which the “LVL THP1 HTRF YMIN” value came to 1.8% and the DC50 was determined as 7 nM. As to `C[C@@H](C#N)Nc1cc(-n2ncc3cc(C#N)cnc32)ncc1-n1cc(C2CCC(CCN3CCN(c4ccc(C5CCC(=O)NC5=O)cc4)CC3)CC2)nn1` (some centres unmarked) [P-205], the “LVL THP1 HTRF YMIN” value was determined as 1.1%. For `C[C@H](C#N)Nc1cc(-n2ncc3cc(C#N)c(N)nc32)ncc1C(=O)N[C@H]1CC[C@H](CCN2CCN(c3ccc([C@@]4(C)CCC(=O)NC4=O)cn3)[C@@H](C)C2)CC1` (single isomer, unassigned) [P-249], the “LVL THP1 HTRF YMIN” value is 1.9% and the DC50 amounted to 2.3 nM.

As to `C[C@H](C#N)Nc1cc(-n2ncc3cncnc32)ncc1-n1cc([C@H]2CC[C@H](CCN3CCN(c4ccc([C@@]5(C)CCC(=O)NC5=O)cc4)CC3)CC2)nn1` [P-225], the DC50 was 133 nM. `C[C@H](C#N)Nc1cc(-n2ncc3cc(C#N)cnc32)ncc1-n1cc([C@H]2CC[C@H](CCN3CC[C@H]4[C@@H]3CCN4c3ccc(C4CCC(=O)NC4=O)cc3)CC2)nn1` (single isomer, unassigned) [P-325]: the “LVL THP1 HTRF YMIN” value is given as 1.6% and the DC50 is 3.8 nM. Take `C[C@H](C#N)Nc1cc(-n2ncc3cc(C#N)c(N)nc32)ncc1C(=O)N[C@H]1CC[C@H](CCN2CCN(c3ccc(C4CCC(=O)NC4=O)c(Cl)c3)[C@H](C)C2)CC1` (some centres unmarked) [P-187]: the “LVL THP1 HTRF YMIN” value is recorded as 1.4% and the DC50 was found to be 20 nM.

For `C[C@H](C#N)Nc1cc(-n2ncc3cc(C#N)cnc32)ncc1-n1cc([C@H]2CC[C@H](CCN3CC4(CC(c5ccc(N6CCC(=O)NC6=O)cn5)C4)C3)CC2)nn1` [P-449], the “LVL THP1 HTRF YMIN” value is 23.7% and the DC50 is 424 nM.

For `C[C@H](C#N)Nc1cc(-n2ncc3cc(C#N)cnc32)ncc1-n1cc([C@H]2CC[C@H](CCN3CC(c4ccc(N5CCC(=O)NC5=O)cc4)C3)CC2)nn1` [P-477], the “LVL THP1 HTRF YMIN” value came out at 18.6% and the DC50 turned out to be 263 nM. As to `C[C@H](C#N)Nc1cc(-n2ncc3cc(C#N)cnc32)ncc1-n1cc([C@H]2CC[C@H](CCN3CCN(c4ccc5c(N6CCC(=O)NC6=O)nn(C)c5c4)[C@@H](C)C3)CC2)nn1` [P-502], the “LVL THP1 HTRF YMIN” value is listed as −0.79% and the DC50 worked out at 1.2 nM. On the same counts, the results for `C[C@H](C#N)Nc1cc(-n2ncc3cc(C#N)cnc32)ncc1C(=O)N[C@H]1CC[C@H](CCN2C3COCC2CN(c2ccc(C4CCC(=O)NC4=O)cc2)C3)CC1` (some centres unmarked) [P-189] are 25.3% and 54 nM. As for `C[C@H](C#N)Nc1cc(-n2ncc3cc(C#N)cnc32)ncc1-n1cc(C2CCC(CCN3[C@@H](C)CN(c4ccc(C5CCC(=O)NC5=O)cc4)C[C@@H]3C)CC2)nn1` (some centres unmarked) [P-201], the “LVL THP1 HTRF YMIN” value is recorded as 0.6% and the DC50 was 2 nM. In the same order, the values of `C[C@H](C#N)Nc1cc(-n2ncc3cc(C#N)cnc32)ncc1-n1cc([C@H]2CC[C@H](CCN3CCC(c4ccc5c(N6CCC(=O)NC6=O)nn(C)c5c4)CC3)CC2)nn1` [P-476] are 0.9% and 2 nM. On to `C[C@H](C#N)Nc1cc(-n2ncc3cc(C#N)cnc32)ncc1-n1cc([C@H]2CC[C@H](CCN3CCN(c4cnc(N5CCC(=O)NC5=O)cn4)[C@H](C)C3)CC2)nn1` [P-440], for which the “LVL THP1 HTRF YMIN” value stood at 2.9% and the DC50 was 53.7 nM. As to `C[C@H](C#N)Nc1cc(-n2ncc3cc(C#N)cnc32)ncc1-n1cc([C@H]2CC[C@H](CCN3CCC(n4ccc(C5CCC(=O)NC5=O)cc4=O)CC3)CC2)nn1` (some centres unmarked) [P-350], the “LVL THP1 HTRF YMIN” value turned out to be 3.7% and the DC50 turned out to be 2.2 nM.
